In ChEMBL document CHEMBL1201862, “PubChem BioAssay data set” (2004):
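Step 1: Grow cells in 96-well plates. Step 2: Expose to compound for 48 hours at 5 concentrations. Step 3: Interpolate endpoints linearly; if unreached, use highest concentration. At the GI50, growth is halved.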 The source made the active and inactive calls. Cut-off read from the data, not from the text of the source: active = GI50 up to about 1.1 µM and inactive = higher.

Legend:
Experiment in all cases: inhibition of tumour cell growth, NCI panel, 48 h
[1] = system: IGROV-1
[2] = system: MDA-N
[3] = system: HT-29
[4] = system: PC-3
[5] = system: A498
[6] = system: LOX IMVI
[7] = system: SF-268
[8] = system: NCI-H460
[9] = system: SN12C
[10] = system: HL-60
[11] = system: DU-145
[12] = system: MDA-MB-435
[13] = system: K562
[14] = system: COLO 205
[15] = system: OVCAR-8
[16] = system: UACC-257
[17] = system: 786-0
[18] = system: MCF7
[19] = system: UACC-62
[20] = system: SF-295

Measured: GI50

S=C1SCN(C2CCCCCCCCCCC2)CN1C1CCCCCCCCCCC1
inactive: [1] > 100 µM | [2] > 100 µM | [3] > 100 µM | [4] > 100 µM | [5] > 100 µM | [6] > 100 µM | [7] > 100 µM | [8] > 100 µM | [9] > 100 µM | [10] 38.2 µM | [11] > 100 µM | [12] 42.2 µM | [13] > 100 µM | [14] > 100 µM | [15] > 100 µM | [16] > 100 µM | [17] > 100 µM | [18] 66.8 µM | [19] 97.9 µM | [20] > 100 µM

CC(C)Oc1cc(O)c2c(c1)OCC=C2CCC(=O)O
inactive: [1] 35.7 µM | [2] 21.7 µM | [3] 19.9 µM | [4] 54.6 µM | [5] 21.4 µM | [6] 33.1 µM | [7] 40.6 µM | [8] 33 µM | [9] 21.3 µM | [10] 20.6 µM | [11] 52.5 µM | [12] 23.8 µM | [13] 28.4 µM | [14] 16.2 µM | [15] 36.1 µM | [16] 20.2 µM | [17] 26.3 µM | [18] 13.9 µM | [19] 26.9 µM | [20] 43.5 µM

O=C(NCCCNCCCNC(=O)c1cc(-c2ccccc2)nc2ccccc12)c1cc(-c2ccccc2)nc2ccccc12
inactive: [1] 1.88 µM | [2] 1.89 µM | [3] 1.75 µM | [4] 1.6 µM | [5] 1.93 µM | [6] 1.8 µM | [7] 1.83 µM | [8] 1.75 µM | [9] 1.84 µM | [10] 1.4 µM | [11] 1.59 µM | [12] 1.64 µM | [13] 1.79 µM | [14] 1.9 µM | [15] 2.56 µM | [16] 1.97 µM | [17] 1.74 µM | [18] 1.66 µM | [19] 1.93 µM | [20] 1.88 µM

CCCCn1cc(C(=O)O)c(=O)c2c3sccc3ccc21
inactive: [1] > 100 µM | [2] > 100 µM | [3] > 100 µM | [4] > 100 µM | [5] > 100 µM | [6] > 100 µM | [7] > 100 µM | [8] > 100 µM | [9] > 100 µM | [10] 34.8 µM | [11] > 100 µM | [12] > 100 µM | [13] > 100 µM | [14] > 100 µM | [15] > 100 µM | [16] > 100 µM | [17] > 100 µM | [18] > 100 µM | [19] > 100 µM | [20] 74.8 µM

C(=C/CCCN1O[C@@H](CCCCCCCCc2cccnc2)[C@H]2CCC[C@H]21)/CCCCCCCCCc1cccnc1
inactive: [1] 30.5 µM | [2] 24.1 µM | [3] 21.9 µM | [4] 18.8 µM | [5] 22.1 µM | [6] 12.7 µM | [7] 23.4 µM | [8] 17.3 µM | [9] 19.7 µM | [10] 5.22 µM | [11] 32.4 µM | [12] 16.2 µM | [13] 11.1 µM | [14] 14.9 µM | [15] 31.6 µM | [16] 14.6 µM | [17] 18.7 µM | [18] 15.7 µM | [19] 20.9 µM | [20] 20 µM

O=P1(C(O)/C=C/c2ccccc2)N(Cc2ccccc2)[C@H](c2ccccc2)[C@@H](c2ccccc2)N1Cc1ccccc1 (stereo not given in full)
inactive: [1] 2.24 µM | [2] 16.5 µM | [3] 14.2 µM | [4] 7.55 µM | [5] 37.7 µM | [6] 17.5 µM | [7] 23.8 µM | [8] 15 µM | [9] 13.6 µM | [10] 6.87 µM | [11] 38.5 µM | [12] 19.3 µM | [13] 7.85 µM | [14] 11.9 µM | [15] 10.2 µM | [16] 8.97 µM | [17] 23.7 µM | [18] 12 µM | [19] 11 µM | [20] 14 µM

COC(=O)C1=C(OC(=O)/C(=C/c2ccccc2)c2ccc([N+](=O)[O-])cc2)C(C(=O)OC)[C@@]2(O)[C@@H](C(=O)OC)[C@H](C)C[C@@H]1[C@@H]2C(=O)OC (stereo not given in full)
inactive: [1] > 100 µM | [2] > 100 µM | [3] > 100 µM | [4] > 100 µM | [5] > 100 µM | [6] > 100 µM | [7] > 100 µM | [8] > 100 µM | [9] > 100 µM | [10] 78 µM | [11] > 100 µM | [12] > 100 µM | [13] > 100 µM | [14] > 100 µM | [15] > 100 µM | [16] > 100 µM | [17] > 100 µM | [18] > 100 µM | [19] > 100 µM | [20] > 100 µM

COc1ccc(C(c2ccc(OC)cc2)N2C(=O)CCC2C(=O)O)cc1 (stereo not given)
inactive: [1] > 100 µM | [2] > 100 µM | [3] > 100 µM | [4] > 100 µM | [5] > 100 µM | [6] > 100 µM | [7] > 100 µM | [8] > 100 µM | [9] > 100 µM | [10] > 100 µM | [11] > 100 µM | [12] > 100 µM | [13] > 100 µM | [14] > 100 µM | [15] > 100 µM | [16] > 100 µM | [17] > 100 µM | [18] > 100 µM | [19] > 100 µM | [20] > 100 µM

CCOC(=O)C1(C(=O)OCC)C[C@H]2CON=C2[C@@H]1c1ccc(C(F)(F)F)cc1
inactive: [1] 12.5 µM | [2] 45.7 µM | [3] 32 µM | [4] 42.9 µM | [5] 53.1 µM | [6] 16.6 µM | [7] > 100 µM | [8] 42.9 µM | [9] 94.8 µM | [10] 27.7 µM | [11] > 100 µM | [12] 38.6 µM | [13] 35.2 µM | [14] 26.2 µM | [15] 79.4 µM | [16] 30.8 µM | [17] 46.9 µM | [18] 35.9 µM | [19] 96.2 µM | [20] 41.5 µM

Oc1cc(Cc2ccccc2)c(Cc2ccccc2)cc1O
inactive: [1] > 10 µM | [2] 1.67 µM | [3] > 10 µM | [4] > 10 µM | [5] > 10 µM | [6] > 10 µM | [7] > 10 µM | [8] > 10 µM | [9] > 10 µM | [10] > 10 µM | [11] > 10 µM | [12] > 10 µM | [13] > 10 µM | [14] > 10 µM | [15] > 10 µM | [16] > 10 µM | [17] > 10 µM | [18] > 10 µM | [19] > 10 µM | [20] > 10 µM
